Data from ChEMBL document CHEMBL3885881, “DrugMatrix”.

Organism: Rattus norvegicus
Test: DrugMatrix - Regimen: Daily Repeat
Format: toxicity, organism-based, Sprague-Dawley
Set-up: regimen Daily Repeat, gender Male, age 6-8 weeks
Settings: in vivo, po, route oral GAVAGE, vehicle 100 % WATER; for ABSOLUTE BASOPHIL / ABSOLUTE EOSINOPHIL / ABSOLUTE LYMPHOCYTE / ABSOLUTE MONOCYTE / ABSOLUTE SEGMENTED NEUTROPHIL / BASOPHIL / EOSINOPHIL / ERYTHROCYTE COUNT / HEMATOCRIT / HEMOGLOBIN / LEUKOCYTE COUNT / LYMPHOCYTE / MEAN CORPUSCULAR HEMOGLOBIN / MEAN CORPUSCULAR HEMOGLOBIN CONCENTRATION / MEAN CORPUSCULAR VOLUME / MONOCYTE / NEUTROPHIL / NUCLEATED RED BLOOD CELLS / PLATELET COUNT: tissue Blood; for ALANINE AMINOTRANSFERASE / ALBUMIN / ALKALINE PHOSPHATASE / ASPARTATE AMINOTRANSFERASE / BLOOD UREA NITROGEN / CARBON DIOXIDE / CHLORIDE / CHOLESTEROL / CREATINE PHOSPHOKINASE / CREATININE / GLUCOSE / LACTATE DEHYDROGENASE / LIPASE / PHOSPHORUS / POTASSIUM / SODIUM / TOTAL BILIRUBIN / TOTAL PROTEIN / URIC ACID: tissue Plasma
[1] = 31 mg/kg, 120 h, dose level Low, time 5 day
[2] = 2629 mg/kg, 72 h, dose level High, time 3 day
[3] = 2629 mg/kg, 120 h, dose level High, time 5 day

SMILES: Nc1ccc(S(=O)(=O)Nc2nccs2)cc1 [SULFATHIAZOLE]
- ABSOLUTE BASOPHIL [1]: 0 CELLS/uL
- ABSOLUTE EOSINOPHIL [1]: 44 CELLS/uL
- ABSOLUTE LYMPHOCYTE [1]: 11208.67 CELLS/uL
- ABSOLUTE MONOCYTE [1]: 0 CELLS/uL
- ABSOLUTE SEGMENTED NEUTROPHIL [1]: 914 CELLS/uL
- BASOPHIL [1]: 0%
- EOSINOPHIL [1]: 0.33%
- ERYTHROCYTE COUNT [1]: 5.37 x10E6/uL
- HEMATOCRIT [1]: 32.6%
- HEMOGLOBIN [1]: 12.8 G/DL
- LEUKOCYTE COUNT [1]: 12.17 x10E3/uL
- LYMPHOCYTE [1]: 92%
- MEAN CORPUSCULAR HEMOGLOBIN [1]: 23.87 pg
- MEAN CORPUSCULAR HEMOGLOBIN CONCENTRATION [1]: 39.27 G/DL
- MEAN CORPUSCULAR VOLUME [1]: 60.87 fL
- MONOCYTE [1]: 0%
- NEUTROPHIL [1]: 7.67%
- NUCLEATED RED BLOOD CELLS [1]: 0 /100WBC
- PLATELET COUNT [1]: 967.33 x10E3/uL
- ALANINE AMINOTRANSFERASE [1]: 55 u/L
- ALBUMIN [1]: 3.97 G/DL
- ALKALINE PHOSPHATASE [1]: 332.33 u/L
- ASPARTATE AMINOTRANSFERASE [1]: 80.33 u/L
- BLOOD UREA NITROGEN [1]: 15.33 mg/dL
- CARBON DIOXIDE [1]: 26.67 mmol/L
- CHLORIDE [1]: 101.67 MEQ/L
- CHOLESTEROL [1]: 68.33 mg/dL
- CREATINE PHOSPHOKINASE [1]: 466 u/L
- CREATININE [1]: 0.16 mg/dL
- GLUCOSE [1]: 230.67 mg/dL
- LACTATE DEHYDROGENASE [1]: 161.67 u/L
- LIPASE [1]: 8.33 u/L
- PHOSPHORUS [1]: 12.43 mg/dL
- POTASSIUM [1]: 5.22 MEQ/L
- SODIUM [1]: 142.17 MEQ/L
- TOTAL BILIRUBIN [1]: 0.13 mg/dL
- TOTAL PROTEIN [1]: 5.83 G/DL
- URIC ACID [1]: 1.13 mg/dL
- ABSOLUTE BASOPHIL [2]: 0 CELLS/uL
- ABSOLUTE EOSINOPHIL [2]: 0 CELLS/uL
- ABSOLUTE LYMPHOCYTE [2]: 13130 CELLS/uL
- ABSOLUTE MONOCYTE [2]: 74.67 CELLS/uL
- ABSOLUTE SEGMENTED NEUTROPHIL [2]: 1895.33 CELLS/uL
- BASOPHIL [2]: 0%
- EOSINOPHIL [2]: 0%
- ERYTHROCYTE COUNT [2]: 6.25 x10E6/uL
- HEMATOCRIT [2]: 39.77%
- HEMOGLOBIN [2]: 15.4 G/DL
- LEUKOCYTE COUNT [2]: 15.1 x10E3/uL
- LYMPHOCYTE [2]: 87%
- MEAN CORPUSCULAR HEMOGLOBIN [2]: 24.67 pg
- MEAN CORPUSCULAR HEMOGLOBIN CONCENTRATION [2]: 38.77 G/DL
- MEAN CORPUSCULAR VOLUME [2]: 63.6 fL
- MONOCYTE [2]: 0.67%
- NEUTROPHIL [2]: 12.33%
- NUCLEATED RED BLOOD CELLS [2]: 0.33 /100WBC
- PLATELET COUNT [2]: 1369.33 x10E3/uL
- ALANINE AMINOTRANSFERASE [2]: 62 u/L
- ALBUMIN [2]: 3.93 G/DL
- ALKALINE PHOSPHATASE [2]: 291 u/L
- ASPARTATE AMINOTRANSFERASE [2]: 83 u/L
- BLOOD UREA NITROGEN [2]: 13.33 mg/dL
- CARBON DIOXIDE [2]: 23.67 mmol/L
- CHLORIDE [2]: 105.33 MEQ/L
- CHOLESTEROL [2]: 68.67 mg/dL
- CREATINE PHOSPHOKINASE [2]: 777 u/L
- CREATININE [2]: 0.18 mg/dL
- GLUCOSE [2]: 146.67 mg/dL
- LACTATE DEHYDROGENASE [2]: 269.33 u/L
- LIPASE [2]: 9.33 u/L
- PHOSPHORUS [2]: 12.5 mg/dL
- POTASSIUM [2]: 5.42 MEQ/L
- SODIUM [2]: 148.07 MEQ/L
- TOTAL BILIRUBIN [2]: 0.1 mg/dL
- TOTAL PROTEIN [2]: 5.7 G/DL
- URIC ACID [2]: 2.33 mg/dL
- ABSOLUTE BASOPHIL [3]: 0 CELLS/uL
- ABSOLUTE EOSINOPHIL [3]: 30.33 CELLS/uL
- ABSOLUTE LYMPHOCYTE [3]: 11698 CELLS/uL
- ABSOLUTE MONOCYTE [3]: 241.67 CELLS/uL
- ABSOLUTE SEGMENTED NEUTROPHIL [3]: 1363.33 CELLS/uL
- BASOPHIL [3]: 0%
- EOSINOPHIL [3]: 0.33%
- ERYTHROCYTE COUNT [3]: 6.23 x10E6/uL
- HEMATOCRIT [3]: 38.77%
- HEMOGLOBIN [3]: 14.67 G/DL
- LEUKOCYTE COUNT [3]: 13.33 x10E3/uL
- LYMPHOCYTE [3]: 87%
- MEAN CORPUSCULAR HEMOGLOBIN [3]: 23.53 pg
- MEAN CORPUSCULAR HEMOGLOBIN CONCENTRATION [3]: 37.83 G/DL
- MEAN CORPUSCULAR VOLUME [3]: 62.27 fL
- MONOCYTE [3]: 2%
- NEUTROPHIL [3]: 10.67%
- NUCLEATED RED BLOOD CELLS [3]: 0.33 /100WBC
- PLATELET COUNT [3]: 1447 x10E3/uL
- ALANINE AMINOTRANSFERASE [3]: 59.33 u/L
- ALBUMIN [3]: 4.2 G/DL
- ALKALINE PHOSPHATASE [3]: 266.67 u/L
- ASPARTATE AMINOTRANSFERASE [3]: 58 u/L
- BLOOD UREA NITROGEN [3]: 14.33 mg/dL
- CARBON DIOXIDE [3]: 21.33 mmol/L
- CHLORIDE [3]: 105 MEQ/L
- CHOLESTEROL [3]: 64.33 mg/dL
- CREATINE PHOSPHOKINASE [3]: 224.67 u/L
- CREATININE [3]: 0.24 mg/dL
- GLUCOSE [3]: 148.67 mg/dL
- LACTATE DEHYDROGENASE [3]: 185.33 u/L
- LIPASE [3]: 11.33 u/L
- PHOSPHORUS [3]: 9.7 mg/dL
- POTASSIUM [3]: 5.17 MEQ/L
- SODIUM [3]: 145.03 MEQ/L
- TOTAL BILIRUBIN [3]: 0.1 mg/dL
- TOTAL PROTEIN [3]: 6 G/DL
- URIC ACID [3]: 1.37 mg/dL
